Measured values as given in patent US20250213649A1, “PEPTIDE HAVING ANTI-INFLAMMATORY AND ANTI-FIBROTIC ACTIVITIES AND USE THEREOF” (CAREGEN CO., LTD., priority 2022, published 2025).

How the values were obtained:
BALB/c mice [1] = experiment: LPS-induced acute lung inflammation model, ELISA of pro-inflammatory proteins in BALF; assay type: in vivo; conditions: BALB/c female mice, LPS 10 μg intranasal, peptide 0.5 mg, 1 mg intranasal, 24 hours (FIG. 11a-11d)
Protocol: (§1) BALB/c mice (Female/7W) were used in animal experiments, and an acute lung inflammation model was established by injection of LPS. As shown in [Table 5] below, 7-week-old BALB/c female mice were divided into 5 groups of 5 mice each, and then the experiment was carried out. On the 1st day, LPS (10 μg/50 μl/mouse) was administered intranasally to the G2 to G5 groups. 1 hour after LPS administration, the G3 and G4 groups were subjected to intranasal administration with the peptide of Production Example 1 (0.5 mg, 1 mg), and the G5 positive control group was subjected to intraperitoneal administration with Dexamethasone (100 μg). 24 hours after the administration of the active substance and the drug, the mice were sacrificed to obtain the bronchoalveolar lavage fluid and the lung tissue, which were used in the next analysis.
The collected BALF was subjected to the ELISA analysis of pro-inflammatory proteins. The supernatant obtained by centrifuging the collected BALF at 3,000 rpm for 10 minutes was subjected to analysis using a TNF-α Quantikine ELISA kit (R&D systems), an IL-1β Quantikine ELISA kit (R&D systems), an IL-6 Quantikine ELISA kit (R&D systems), and a Myeloperoxidase (MPO) Quantikine ELISA Kit (R&D systems) according to the instructions for use, and then the absorbance was measured at 450 nm using a microplate reader.

MRC-5 cells = experiment: Inhibition of fibrosis gene expression induced by TGF-β1, RT-PCR, MRC-5 cells; assay type: cell-based; conditions: 5 ng/ml TGF-β1, peptide 10, 50, 100, 500 μM, 3 hours, RT-PCR (FIG. 7)
Protocol: MRC-5 cells (lung fibroblast cells) were seeded at 2×10^5 cells/well in a 12-well plate and used in the experiment. After culturing for 1 day with a culture medium containing 10% FBS, the culture medium was replaced with a culture medium without containing FBS to induce starvation for 4 hours. Cells of a normal group without being treated with any substances, a group treated with 5 ng/ml of TGF-β1 (negative control group), groups treated with 5 ng/ml of TGF-β1 and the peptide of Production Example 1 (10, 50, 100, 500 μM), and a group treated with 5 μg/ml of LPS and 10 μM of Dexamethasone (DEX) (positive control group) were treated with the above-described active substances and drugs, and then RNA was extracted after 3 hours to carry out RT-PCR. RNA was extracted from MRC-5 cells using an easy-BLUE™ Total RNA extraction kit (Qiagen, Germany). The extracted RNA was converted into cDNA using RT-PCR premix (iNtRON Biotechnology, Seongnam, Korea). After preparing a reaction mixture with PCR premix (iNtRON Biotechnology, Seongnam, Korea) and primers for each gene, PCR was carried out using a PCR machine (Eppendorf, Germany). Next, the mRNA expression pattern was determined by agarose gel electrophoresis.

BALB/c mice [2] = experiment: BLM-induced pulmonary fibrosis model, Masson's Trichrome staining of lung tissue collagen; assay type: in vivo; conditions: BALB/c male mice, peptide 1 mg/mouse intranasal three times a week for 14 days, 21st day, Trichrome staining (FIG. 15a, 15b)
Protocol: (§2) As shown in [Table 6] below, 8-week-old BALB/c male mice were divided into 4 groups of 5 mice each. On the 1st day, a Bleomycin solution ([…]/50 μl/mouse) was administered through the oropharynx to carry out one time of induction with BLM. Then, from the 7th day, the peptide of Production Example 1 (1 mg/mouse) was administered intranasally three times a week for 14 days, and Pirfeninone (2 mg/mouse) for a positive control group was administered orally three times a week for 14 days. On the 21st day of the induction with BLM, mice were sacrificed to obtain the bronchoalveolar lavage fluid and the lung tissue, which were used in the next analysis.
The lung tissue obtained from mice subjected to the animal experiment was washed with PBS at room temperature and then fixed with 4% paraformaldehyde (PBS dilution). The fixed tissue was washed three times with PBS and dehydrated using an ethanol series having a concentration gradient of 70% to 100%. Next, the lung tissue sample was embedded and cut into slices having a thickness of 4 μm. The sliced specimen having a size of 4 μm, which was placed on a slide glass, was dewaxed and hydrated in an ethanol series having a concentration gradient. Staining was carried out for 10 minutes in each of Weigert's iron hematoxlin, a Biebrich scarlet-acid fuchsin solution, a Phosphomolybdic-phosphotungstic acid solution, and an aniline blue solution. […]

[3] = BLM-induced pulmonary fibrosis model, body weight change; assay type: in vivo; conditions: BALB/c male mice with BLM-induced pulmonary fibrosis, peptide 1 mg/mouse intranasal three times a week for 14 days from 7th day (FIG. 13a)
Protocol: as §2

BALB/c mice [4] = experiment: LPS-induced acute lung inflammation model, cell counts in bronchoalveolar lavage fluid; assay type: in vivo; conditions: BALB/c female mice, LPS 10 μg intranasal, peptide 0.5 mg, 1 mg intranasal 1 hour after LPS, 24 hours (FIG. 10a, 10b)
Protocol: as §1
After anesthetizing the mouse, the treatment area was disinfected with 70% ethanol. […] The separated cells were resuspended in 0.5 ml of PBS, subsequently diluted with trypan blue solution at a 1:1 ratio, and then the total number of cells was counted using a hematocytometer. […] After staining, cells were observed and counted through a microscope, and then the number of immune cells with respect to the total number of cells was calculated to show the results as a graph.

Sequence: KYLLVHRPYYRR [peptide of Production Example 1]
- expression level of IL-1β in BALF (ELISA) (BALB/c mice [1]): reduced the increased expression levels of the cytokines in a concentration-dependent manner
- expression level of IL-6 in BALF (ELISA) (BALB/c mice [1]): reduced the increased expression levels of the cytokines in a concentration-dependent manner
- expression level of Myeloperoxidase (MPO) in BALF (ELISA) (BALB/c mice [1]): reduced the increased expression levels of the cytokines in a concentration-dependent manner
- expression level of TNF-α in BALF (ELISA) (BALB/c mice [1]): reduced the increased expression levels of the cytokines in a concentration-dependent manner
- expression of Collagen 1A1 gene (MRC-5 cells): decreased the expression of genes in a concentration-dependent manner
- expression of Fibronectin 1 gene (MRC-5 cells): decreased the expression of genes in a concentration-dependent manner
- expression of Tenascin C gene (MRC-5 cells): decreased the expression of genes in a concentration-dependent manner
- expression of α-SMA gene (MRC-5 cells): decreased the expression of genes in a concentration-dependent manner
- degree of collagen deposition in the lung tissue (BALB/c mice [2]): significantly reduced
- body weight [3]: recovered again
- number of macrophages in bronchoalveolar lavage fluid (BALB/c mice [4]): not increased or decreased
- number of neutrophils in bronchoalveolar lavage fluid (BALB/c mice [4]): significantly reduced the increased number of neutrophils in a concentration-dependent manner
